Assay results published in patent US9782379B2, “Use of protectin DX for the stimulation of muscular IL-6 secretion” (Universite Laval, priority 2013, dated 2017).

Tests used:
lean C57BL/6J mice = experiment: paired 6 h lipid infusion and 4 mU/kg hyperinsulinemic-euglycemic clamp; format: in vivo
Description: 14-week old male C57BL/6J mice from Jackson Labs were used for the first paired lipid infusion hyperinsulinemic-euglycemic clamp study. These mice were placed on a standard laboratory chow diet with free access to food and water and kept in a 12 h light 12 h dark cycle at the Laval University hospital research centre animal facility. Mice were randomly assigned to saline, lipid or lipid+PDX groups. Five days prior to the experiment, mice were anesthetized and PE-10 catheters (Harvard Apparatus, QC, Canada) were inserted into the left common carotid artery and the right jugular vein for blood sampling and infusions respectively. Mice were fasted for 5 h leading up to the protocol. Immediately prior to the start of the lipid infusion, PDX (1 ug) or an equal volume of vehicle was administered via the jugular catheter to each group. Mice were then infused for 6 h with saline (5ml·kg^−1·h^−1) or lipid (20% intralipid emulsion (Baxter, ON, Canada) 5ml·kg^−1·h^−1 with 20 IU·ml^−1 heparin (LEO pharma, ON, Canada)). 2.5h into the infusion PDX (1 ug) or vehicle was again administered to the appropriate groups and the HIE clamp was initiated as previously described ^8,27. The clamp protocol consisted of a 90 min tracer equilibration period followed by a 120 min experimental period. A 5-μCi bolus of [3-^3H]glucose was given at the start of the tracer equilibration period followed by a 0.05-μCi/min infusion for 90 min. Blood samples were drawn for the assessment of glycemia, insulin and glucose turnover levels. Following the 90 min tracer equilibration period the clamp began with a primed-continuous infusion of human insulin (16 mU/kg bolus followed by 4 mU·kg^−1·min^−1, Humulin R; Eli Lilly, Indianapolis, Ind.). The [3-^3H]glucose infusion was increased to 0.2 μCi/min for the remainder of the experiment. Euglycemia (6.0-7.0 mM) was maintained during clamps by infusing 20% dextrose as necessary. Blood samples were taken continuously to determine glucose specific activity as well as insulin concentrations. Mice received saline-washed erythrocytes from donor mice throughout the experimental period (5-6 μl·min-1) to prevent a fall of ≧5% hematocrit. HGP and Rd were determined using Mari's non-steady-state equations for a two-compartmental model^28.
(§1) Snap frozen gastrocnemius muscle and liver from mice were pulverized in liquid nitrogen then lysed overnight at 4° C. in the lysis buffer described for the C2C12 myotube experiments. Immunoblotting of myotube, macrophage, liver and muscle lysates was then performed as previously described^5. Briefly, 50 ug of protein was loaded onto a 7.5% acrylamide gel, subjected to SDS-PAGE then transferred onto nitrocellulose membranes. Membranes were then blocked and probed with the appropriate antibodies. Antibodies for p-Akt ser473, p-JNK thr183/tyr185, JNK, p-AMPK thr172, AMPK, p-STAT-3 ser727 and STAT-3 were obtained from Cell Signaling Technology (MA, USA). Antibodies for total Akt and iNOS were from Santa Cruz Biotechnology (CA, USA) and BD Transduction Laboratories™ (Canada) respectively.
(§2) RNA was extracted from C2C12 myotubes using an RNeasy® mini kit from QIAGEN. RNA from homogenized liver tissue was extracted using an RNeasy® fibrous tissue mini kit from QIAGEN. RNA was then reverse transcribed to cDNA using the high-capacity cDNA reverse transcription kit from applied biosystems. Real-time PCR for Ppargc1, Pck1, G6Pc, and GAPDH was then performed using Taqman assay on demand probes and primers from Applied Biosystems in a CFX96 real-time system from BIO-RAD. The relative expression of genes of interest was then determined by normalization to the housekeeping gene GAPDH using the comparative CT method for relative gene expression^30.
Chemokines and cytokines were quantified in macrophage media, or mouse plasma using the MILLIPLEX™ MAP mouse cytokine/chemokine kit (Millipore Corporation, MA, USA). Nitrite accumulation in media was determined by Greiss assay as previously described^25. […]

C2C12 myotubes = experiment: IL-6 expression and release and AMPK phosphorylation in cultured C2C12 myotubes; format: cell-based
Description: C2C12 myoblasts were maintained in DMEM containing 10% FBS. Differentiation to myotubes was initiated by addition of DMEM containing 2% horse serum. The experiment was conducted 5 days after the addition of the differentiation media. Immediately prior to the commencement of experiments fresh media was added to the cells. Then vehicle or PDX (10, 100, and 1000 nM) was added to the appropriate wells. 30 and 120 minutes after the addition of PDX media was collected and frozen for IL-6 quantification and cells were washed in ice cold PBS. For extraction of mRNA cells were then lysed and scraped in 300 μl of RLT buffer (QIAGEN). For examination of AMPK activity cells were lysed and scraped in 200 μl of ice cold lysis buffer containing 50 mM HEPES pH7.5, 150 mM NaCl, 1 mM EGTA, 20 mM b-glycerophosphate, 1% NP40, 10 mM NaF, 2 mM Na3VO4, 1× protease inhibitor cocktail (Sigma).
as §1, §2
Chemokines and cytokines were quantified in macrophage media, or mouse plasma using the MILLIPLEX™ MAP mouse cytokine/chemokine kit (Millipore Corporation, MA, USA). Nitrite accumulation in media was determined by Greiss assay as previously described^25. Plasma insulin levels were assessed by RIA (Linco, MI, USA). FFA were measured using an enzymatic colorimetric assay (Wako Chemicals, VA, USA). Skeletal muscle and liver IL-6 were quantified using the mouse IL-6 ELISA kit from R&D systems. Total plasma adiponectin was determined using the ELISA from ALPCO.

[1] = highest dose, within 2 h, P<0.01

## CC/C=C\C[C@H](O)/C=C/C=C\C=C\[C@@H](O)C/C=C\C/C=C\CCC(=O)O [PDX, 10S,17S-dihydroxy-docosa-4Z,7Z,11E,13Z,15E,19Z-hexaeonic acid]
Lean C57BL/6J mice; P<0.05
  phosphorylation of AMPK on Thr172 in muscle: robust phosphorylation
  phosphorylation of hepatic STAT-3 on Ser727: enhancing
Lean C57BL/6J mice; PDX 1 ug i.v. immediately prior to and 2.5 h into 6 h lipid infusion, vs saline and lipid-treated animals, P<0.01
  pre-clamp glycemia: significant lowering
Lean C57BL/6J mice; PDX 1 ug i.v. x2, lipid-infused
  peripheral insulin action: partial restoration
Lean C57BL/6J mice; PDX 1 ug i.v. x2, lipid-infused, P<0.001
  lipid-induced decline in whole-body insulin sensitivity (glucose infusion rate, GIR): completely prevented the lipid-induced decline
Lean C57BL/6J mice; PDX 1 ug i.v. x2, lipid-infused, significantly greater than saline-infused mice, P<0.05
  hepatic insulin action: markedly increased
Lean C57BL/6J mice; both lipid-infused groups (with and without PDX)
  adiponectin in plasma: similarly reduced levels
Lean C57BL/6J mice; expression profile compared with plasma IL-6
  IL-6 protein expression in skeletal muscle: closely resembled that of plasma
Lean C57BL/6J mice; liver and skeletal muscle, immunoblot
  phosphorylation of Akt on Ser473: confirmed the improved insulin action
Lean C57BL/6J mice; liver, immunoblot
  JNK activation (phosphorylation on Thr183/Tyr185): prevents
Lean C57BL/6J mice; mouse, in vivo
  liver IL-6 levels: no significant effect
  suppression of PGC-1α and PEPCK in liver (mRNA): enhancing
Lean C57BL/6J mice; muscle and liver, immunoblot
  lipid-mediated induction of iNOS: represses
Lean C57BL/6J mice; plasma, lipid-infused
  lipid-induced secretion of cytokines TNFα, IFNγ, IL-1β, IL-2 and IL-17: strongly suppresses
  lipid-induced secretion of proinflammatory chemokines CCL2/MCP-1 and CCL5/RANTES: strongly suppresses
Lean C57BL/6J mice; plasma, P<0.001
  increase in IL-6 beyond that induced by lipid infusion alone: ~7 fold
Lean C57BL/6J mice; tendency, P=0.08
  suppression of G6Pase in liver (mRNA): did not reach significance
C2C12 myotubes; 100 nM of each lipid mediator vs vehicle
  IL-6 release from muscle cells: prompted IL-6 release
C2C12 myotubes; 30 minutes
  AMPK phosphorylation: promotes AMPK phosphorylation
  IL-6 release in the media: no IL-6 release can be detected
C2C12 myotubes; 2 h, P<0.05
  phosphorylation of AMPK: detected
C2C12 myotubes; [1]
  increase in IL-6 mRNA expression: more than 2 fold
  increase in IL-6 secretion (accumulation in media): more than 2 fold
